Experimental data: PubChem BioAssay (NCI)
Several values for one entry are separate records, joined by “and”; a condition that tells them apart may be missing. Equal entries are not always repeated.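 Step 1: Grow cells in 96-well plates. Step 2: Expose to compound for 48 hours at 5 concentrations. Step 3: Interpolate endpoints linearly; if unreached, use highest concentration. Abbreviation: GI50, concentration required for 50% inhibition of growth. The concentration for full growth arrest is given as TGI.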

Tests used:
Assay in all cases: DTP human tumour cell line panel, 48 h
UO-31 renal = system: UO-31 renal
DU-145 prostate = system: DU-145 prostate
HT29 colon = system: HT29 colon
SF-295 CNS = system: SF-295 CNS
RXF 393 renal = system: RXF 393 renal
T-47D breast = system: T-47D breast
SF-268 CNS = system: SF-268 CNS
UACC-257 melanoma = system: UACC-257 melanoma
K-562 leukemia = system: K-562 leukemia
BT-549 breast = system: BT-549 breast

Compound | TGI (UO-31 renal) [µM] | TGI (DU-145 prostate) [µM] | TGI (HT29 colon) [µM] | TGI (SF-295 CNS) | TGI (RXF 393 renal) [µM] | TGI (T-47D breast) [µM] | TGI (SF-268 CNS) [µM] | TGI (UACC-257 melanoma) [µM] | TGI (K-562 leukemia) [µM] | GI50 (UO-31 renal) [µM] | GI50 (DU-145 prostate) [µM] | GI50 (HT29 colon) [µM] | GI50 (SF-295 CNS) | GI50 (RXF 393 renal) [µM] | GI50 (SF-268 CNS) [µM] | GI50 (BT-549 breast) [µM] | TGI (BT-549 breast) [µM] | GI50 (UACC-257 melanoma) [µM] | GI50 (K-562 leukemia) [µM] | GI50 (T-47D breast) [µM]
Cn1nnnc1N/N=C/c1ccccc1 | > 10 | > 10 | > 10 | > 10 µM | > 10 | > 10 | > 10 | > 10 | > 10 |  |  |  |  |  |  |  |  |  |  | 
C=CC[P+](c1ccccc1)(c1ccccc1)c1ccccc1 | > 100 | > 100 | > 100 | 28.2 µM | > 100 |  | > 100 | 6.66 | > 100 | 84 | 7.33 | 3.21 | 4.58 µM | 27.6 | 5.46 | 4.05 | 94.5 | 0.877 | 2.12 | 
C=C(C)C1CC2(C)C(C)CC(OC(=O)/C(C)=C\C)CC2C(OC(=O)/C(C)=C\C)C1O (configuration not stated) | > 100 | > 100 | > 100 |  |  | > 100 | > 100 | > 100 |  |  |  |  |  |  |  |  | > 100 |  |  | 
O=C(CSC(c1ccccc1)c1ccccc1)N/N=C/c1cccc(Cl)c1 | 23.9 | 30 |  | 44.8 µM | 29.5 |  | 35 | 32.1 | 41.9 | 11.7 | 16.4 |  | 22.9 µM | 13.9 | 17.5 | 17.9 | 32.2 | 14.6 | 21.6 | 
C1C[S][Ge]2([S]CCO1)[S]CCOCC[S]2 | > 100 |  |  |  |  |  | > 100 |  | > 100 | > 100 |  |  |  |  | > 100 |  |  |  | > 100 | 
COc1ccc(C(=O)C(C(=O)C(=O)Nc2ccc(Cl)c(Cl)c2)c2ccc(OC)cc2)cc1 (configuration not stated) | > 100 |  | > 100 | > 100 µM | > 100 |  | > 100 | > 100 | > 100 |  |  |  |  |  |  |  |  |  |  | 
C=CC(C=O)C1(O)CCOC(=O)/C1=C\N (configuration not stated) | > 100 | > 100 | > 100 | > 100 µM |  | > 100 | > 100 | > 100 | > 100 | > 100 | > 100 | > 100 | > 100 µM |  | > 100 |  |  | > 100 | > 100 | > 100
CC(C)(C)CC(C)(C)c1cc2c(O)c(c1)Cc1cc(C(C)(C)CC(C)(C)C)cc(c1O)Cc1cc(C(C)(C)CC(C)(C)C)cc(c1O)Cc1cc(C(C)(C)CC(C)(C)C)cc(c1O)Cc1cc(C(C)(C)CC(C)(C)C)cc(c1O)Cc1cc(C(C)(C)CC(C)(C)C)cc(c1O)C2 | > 100 |  | > 100 | > 100 µM | > 100 |  | > 100 | > 100 | > 100 |  |  |  |  |  |  |  |  |  |  | 
CN(C)CCNC(=O)Cn1cc([N+](=O)[O-])c(=O)c2ccccc21 | > 100 | > 100 | > 100 | > 100 µM |  | > 100 | > 100 | > 100 | > 100 |  |  |  |  |  |  |  | > 100 |  |  | 
CC(=O)O[C@H](C[C@H](C(C)C)N(C)C(=O)[C@@H](NC(=O)[C@H]1CCCCN1C)C(C)C)c1nc(C(=O)N[C@@H](Cc2ccccc2)C[C@H](C)C(=O)O)c(C(C)C)s1 | > 33.3 | 0.0827 | > 33.3 | 0.297 µM | > 33.3 |  | > 33.3 | > 33.3 | > 33.3 | 0.0161 | < 0.00333 | < 0.00333 | < 0.00333 µM | < 0.00333 | < 0.00333 | 0.00338 | 0.0147 | > 33.3 | < 0.00333 | 
C/C(=N\N=C(\[Se])N1CCN(c2ccccn2)CC1)c1ccccn1 | > 40 | 20.1 | 14.2 | 16.7 µM | 1.83 |  | 19.5 | 12.8 |  | 0.138 | 0.586 | 0.00203 | 0.0204 µM |  |  |  | 25 | 0.0047 | 0.00114 | 
COc1ccc(C2=NN(C(=O)c3cc(OC)c(OC)c(OC)c3)C(c3ccc(Cl)cc3)C2)cc1OC (configuration not stated) | 41.8 | > 58.9 | > 100 | > 100 µM |  | > 100 | 23.6 | 77.8 | > 100 | 1.11 | 3.62 | 1.4 | 0.565 µM |  | 2.66 | 2.95 | 71.6 | 8.6 | 0.777 | 3.59
O=c1cccccc1NCCCCCCNc1cccccc1=O | > 100 |  | > 100 | > 100 µM |  |  | > 100 | > 100 | > 100 |  |  |  |  |  |  |  |  |  |  | 
O=C1N(c2ccccc2)C(=O)C2(SC=NN2Cc2ccccc2)N1c1ccccc1 (configuration not stated) | > 100 |  | > 100 | > 100 µM | > 100 |  | > 100 | > 100 | > 100 |  |  |  |  |  |  |  |  |  |  | 
CCOc1cc2c(cc1O)/C(=N\O)C[C@@H]1[C@@H]2CC[C@]2(C)[C@@H](O)CC[C@@H]12 | 46.1 | > 100 | > 100 | 0.081 µM and 0.0784 µM | > 100 |  |  |  | > 94.1 | 0.984 | 0.0232 | 3.94 | 0.00322 µM and 0.0266 µM |  | 0.0884 | 0.0864 | 22.5 |  | 0.00978 | 
CCOC(=O)C1=C(O)CSC1=Nc1ccccc1 | > 100 |  | > 100 | > 100 µM |  |  | > 100 | > 100 | > 100 |  |  |  |  |  |  |  |  |  |  | 
CC/C(=C(/CC)c1ccc([O-])cc1)c1ccc([O-])cc1.CC/C(=C(\CC)c1ccc([O-])cc1)c1ccc([O-])cc1.O=C([CH-]C(=O)c1ccccc1)c1ccccc1.O=C([CH-]C(=O)c1ccccc1)c1ccccc1.O=C([CH-]C(=O)c1ccccc1)c1ccccc1.O=C([CH-]C(=O)c1ccccc1)c1ccccc1.[Ti+4].[Ti+4] | 72.2 |  | > 100 | 42.6 µM | 42.3 |  | > 100 | > 100 | > 100 | 35 |  | 29.8 | 19.9 µM | 14.7 | 35.8 |  |  | 28 | 23.9 | 
Cc1ccc(Nc2n[nH]c(=S)s2)cc1 | > 100 | > 100 | > 100 | > 100 µM | > 100 | > 100 | > 100 | > 100 | > 100 |  |  |  |  |  |  |  |  |  |  | 
O=C1OCCC1C(O)C1c2ccccc2-c2ccccc21 (configuration not stated) | > 100 |  | > 100 | > 100 µM |  |  | > 100 | > 100 | > 100 |  |  |  |  |  |  |  |  |  |  | 
